Test results as given in PubChem BioAssay (NCI).
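A five-concentration, 48-hour dose response in 96-well plates underlies each endpoint, interpolated linearly between surrounding concentrations. GI50: concentration for 50% inhibition of growth. TGI is the concentration that stops growth completely.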 Active and inactive are the calls of the source. No stated cut-off is given here; in the data, active means GI50 below about 0.43 µM; inactive means the rest.

Experiments:
Test in all cases: inhibition of tumour cell growth, NCI panel, 48 h
HOP-62 NSCLC = system: HOP-62 NSCLC
HOP-92 NSCLC = system: HOP-92 NSCLC
HL-60(TB) leukemia = system: HL-60(TB) leukemia
NCI-H522 lung = system: NCI-H522 lung
786-0 renal = system: 786-0 renal
OVCAR-5 ovarian = system: OVCAR-5 ovarian
TK-10 renal = system: TK-10 renal
ACHN renal = system: ACHN renal
NCI-H226 lung = system: NCI-H226 lung

| Structure (SMILES) | GI50 (HOP-62 NSCLC) [µM] | TGI (HOP-62 NSCLC) [µM] | GI50 (HOP-92 NSCLC) [µM] | TGI (HOP-92 NSCLC) [µM] | GI50 (HL-60(TB) leukemia) [µM] | TGI (HL-60(TB) leukemia) [µM] | GI50 (NCI-H522 lung) [µM] | TGI (NCI-H522 lung) [µM] | GI50 (786-0 renal) [µM] | TGI (786-0 renal) [µM] | GI50 (OVCAR-5 ovarian) [µM] | TGI (OVCAR-5 ovarian) [µM] | GI50 (TK-10 renal) [µM] | TGI (TK-10 renal) [µM] | GI50 (ACHN renal) [µM] | TGI (ACHN renal) [µM] | GI50 (NCI-H226 lung) [µM] | TGI (NCI-H226 lung) [µM] | outcome (HOP-62 NSCLC) |
| --- | --- | --- | --- | --- | --- | --- | --- | --- | --- | --- | --- | --- | --- | --- | --- | --- | --- | --- | --- |
| O=C(O)CCNC1CCCCC1 | > 100 | > 100 | > 100 | > 100 | > 100 | > 100 | > 100 | > 100 | > 100 | > 100 | > 100 | > 100 | > 100 | > 100 | > 100 | > 100 | > 100 | > 100 |  |
| Cc1ccc2c(c1)Sc1c(ccc3ccccc13)N2 | > 100 | > 100 | 7.07 | > 100 | 34.2 | > 100 | > 100 | > 100 | > 100 | > 100 | > 100 | > 100 | 12.8 | > 100 | 55.5 | > 100 | 11.8 | > 100 |  |
| O=C(CCc1nnc2sc(-c3ccc(Cl)cc3Cl)nn12)c1nc2ccccc2[nH]1 | 0.577 | 2.12 | 0.391 | 1.86 | 1.24 | 5.52 | 0.755 | 2.18 | 1.48 | 2.89 | 1.96 | 4.23 | 1.29 | 2.77 | 0.337 | 1.29 | 0.663 | 1.56 |  |
| CC1CN1C(=O)NCCCCCCNC(=O)N1CC1C (configuration not stated) |  | > 100 |  | > 100 |  | > 100 |  | > 100 |  | > 100 |  | > 100 |  | > 100 |  | > 100 |  | > 100 |  |
| CCCCCCCC[C@@H](O)CC(=O)N[C@@H](CC(N)=O)C(=O)N[C@@H](CCC(N)=O)C(=O)N[C@@H](CC(=O)c1cc(C)cc(O)c1C(=O)c1c(O)cccc1O)CC(C)C | 0.86 | 4.92 | 0.201 | 0.939 | 1.89 | > 100 | 0.228 | 0.815 | 0.507 | 9.84 |  | 27.7 | 0.179 | 1.26 | 3.09 | > 100 | 0.237 | 0.746 |  |
| Cc1c(C(=O)C/C(=N/NC(=O)C[N+](C)(C)C)C(=O)Nc2ccc(Cl)cc2)[n+](=O)c2ccccc2n1O |  | > 100 |  | > 100 |  | > 100 |  | > 100 |  | > 100 |  | > 100 |  | > 100 |  | > 100 |  | > 100 |  |
| O=C(O)c1nn(-c2ccccc2-c2n[nH]c(=O)[nH]c2=O)c(=O)[nH]c1=O |  | > 100 |  | > 100 |  | > 100 |  | > 100 |  | > 100 |  | > 100 |  | > 100 |  | > 100 |  | > 100 |  |
| Nc1nccc(-c2c(-c3ccc(F)cc3)ncn2C2CCC(O)CC2)n1 (configuration not stated) | 13.2 | > 25 | 1.62 | 17.3 | 24.4 | > 25 | 5.49 | > 23.1 | 10.7 | > 25 | 8.45 | > 25 | 3.72 | 24.4 | 2.83 | > 25 | 5.45 | 24.5 |  |
| O=C(CCc1cc(-c2ccccc2)nc(=S)[nH]1)N(Cc1ccccc1)Cc1ccccc1 |  | > 100 |  | > 100 |  | > 100 |  | > 100 |  | > 100 |  | > 100 |  | > 100 |  | > 100 |  | > 100 |  |
| CC(=O)OCC1OC(NC(=S)N/N=C2\CC(c3ccccc3)Oc3ccccc32)C(OC(C)=O)C(OC(C)=O)C1OC(C)=O (configuration not stated) |  | > 100 |  | > 100 |  | > 100 |  | > 100 |  | > 100 |  | > 100 |  | > 100 |  | > 100 |  | > 100 |  |
| COCCCNC(=O)C1C(=O)C(=O)N(CCCOC)C1=O (configuration not stated) |  | > 100 |  | > 100 |  | > 100 |  | > 100 |  | > 100 |  | > 100 |  | > 100 |  | > 100 |  | > 100 |  |
| CS(=O)(=O)c1ccc(-n2nc(C(F)(F)F)cc2OC2CCCC2)cc1 | 88 | > 100 | 50.7 | > 100 | 24 | 59.3 | 45.8 | > 100 | 34 | > 100 | > 100 | > 100 | 36.9 | 93.9 | 22.4 | 56 | 34 | > 100 |  |
| COc1ccc(C(=O)C#Cc2cnc(OC)nc2OC)cc1 |  | 30.7 | 19700 |  | 22100 |  | 12700 |  | 22000 |  | 31100 | 3.01 | 17700 |  | 17200 |  | 16900 |  | inactive |
